Assay results reported in patent publication US9458153B2, “Dihydroquinolizinones for the treatment and prophylaxis of hepatitis B virus infection” (Hoffmann-La Roche Inc., priority 2014, dated 2016).

Test system: HBsAg
Test: HBsAg assay (chemiluminescence immunoassay of secreted HBsAg in HepG2.2.15 culture supernatant)
Assay type: cell-based, HBV
Conditions: HepG2.2.15 cells, CLIA kit
Outline: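 IC50 came from dose-response curves of HBsAg in culture supernatant, measured semi-quantitatively by chemiluminescent immunoassay. The HBV-producing HepG2.2.15 line was dosed in duplicate with a three-fold compound dilution series, with DMSO at 1% final and DMSO alone as the no-drug control.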

[1] = HBsAg secretion reduced by 50% vs no drug control
[2] = Hepatitis B virus, HepG2.2.15, HBsAg secretion reduced by 50% vs no drug control

Compound | IC50 [1] [µM] | IC50 [2] [µM]
CCC1Cc2cc(OC)c(C3CC3)cc2-c2cc(=O)c(C(=O)O)cn21 (stereo not shown) [Example 89, 10-cyclopropyl-6-ethyl-9-methoxy-2-oxo-6,7-dihydrobenzo[a]quinolizine-3-carboxylic acid] | 0.008 | 
CCC1Cc2cc(Br)c(OC)cc2-c2cc(=O)c(C(=O)O)cn21 (stereo not shown) [Example 92, 9-bromo-6-ethyl-10-methoxy-2-oxo-6,7-dihydrobenzo[a]quinolizine-3-carboxylic acid] |  | 0.23
CCC1Cc2cc(C#N)c(OC)cc2-c2cc(=O)c(C(=O)O)cn21 (stereo not shown) [Example 93, 9-cyano-6-ethyl-10-methoxy-2-oxo-6,7-dihydrobenzo[a]quinolizine-3-carboxylic acid] |  | 0.19
CCOc1ccc(Br)c2c1-c1cc(=O)c(C(=O)O)cn1C(CC)C2 (stereo not shown) [Example 94, 8-bromo-11-ethoxy-6-ethyl-2-oxo-6,7-dihydrobenzo[a]quinolizine-3-carboxylic acid] |  | 0.41
CCOc1ccc(C#N)c2c1-c1cc(=O)c(C(=O)O)cn1C(CC)C2 (stereo not shown) [Example 95, 8-cyano-11-ethoxy-6-ethyl-2-oxo-6,7-dihydrobenzo[a]quinolizine-3-carboxylic acid] |  | 7.83
CCCC1Cc2cc(OC)c(OC)cc2-c2cc(=O)c(C(=O)O)cn21 (stereo not shown) [Example 96, 9,10-dimethoxy-2-oxo-6-propyl-6,7-dihydrobenzo[a]quinolizine-3-carboxylic acid] |  | 0.049
COc1cc2c(cc1OC)-c1cc(=O)c(C(=O)O)cn1C(C1CC1)C2 (stereo not shown) [Example 97, 6-cyclopropyl-9,10-dimethoxy-2-oxo-6,7-dihydrobenzo[a]quinolizine-3-carboxylic acid] |  | 0.07
COc1cc2c(cc1OC)-c1cc(=O)c(C(=O)O)cn1C(C(C)C)C2 (stereo not shown) [Example 98, 6-isopropyl-9,10-dimethoxy-2-oxo-6,7-dihydrobenzo[a]quinolizine-3-carboxylic acid] | 0.016 | 
COc1cc2c(cc1OC)-c1cc(=O)c(C(=O)O)cn1C(CC(C)C)C2 (stereo not shown) [Example 101, 6-isobutyl-9,10-dimethoxy-2-oxo-6,7-dihydrobenzo[a]quinolizine-3-carboxylic acid] | 0.045 | 
COCCOc1cc2c(cc1Cl)-c1cc(=O)c(C(=O)O)cn1C(CC(C)C)C2 (stereo not shown) [Example 104, 10-chloro-6-isobutyl-9-(2-methoxyethoxy)-2-oxo-6,7-dihydrobenzo[a]quinolizine-3-carboxylic acid] | 0.018 | 
COCCOc1cc2c(cc1Cl)-c1cc(=O)c(C(=O)O)cn1C(C(C)C)C2 (stereo not shown) [Example 107, 10-chloro-6-isopropyl-9-(2-methoxyethoxy)-2-oxo-6,7-dihydrobenzo[a]quinolizine-3-carboxylic acid] | 0.012 | 
COCCOc1cc2c(cc1F)-c1cc(=O)c(C(=O)O)cn1C(C(C)C)C2 (stereo not shown) [Example 110, 10-fluoro-6-isopropyl-9-(2-methoxyethoxy)-2-oxo-6,7-dihydrobenzo[a]quinolizine-3-carboxylic acid] |  | 0.052
COCCOc1cc(Cl)c2c(c1)CC(C(C)C)n1cc(C(=O)O)c(=O)cc1-2 (stereo not shown) [Example 111, 11-chloro-6-isopropyl-9-(2-methoxyethoxy)-2-oxo-6,7-dihydrobenzo[a]quinolizine-3-carboxylic acid] |  | 0.04
CCC1Cc2cc(C)c(C)cc2-c2cc(=O)c(C(=O)O)cn21 (stereo not shown) [Example 112, 6-ethyl-9,10-dimethyl-2-oxo-6,7-dihydrobenzo[a]quinolizine-3-carboxylic acid] |  | 0.14
CCC1Cc2c(ccc(C)c2C)-c2cc(=O)c(C(=O)O)cn21 (stereo not shown) [Example 113, 6-ethyl-8,9-dimethyl-2-oxo-6,7-dihydrobenzo[a]quinolizine-3-carboxylic acid] |  | 0.64
COc1cc2c(cc1OC)-c1cc(=O)c(C(=O)O)cn1C(C(F)(F)F)C2 (stereo not shown) [Example 114, 9,10-dimethoxy-2-oxo-6-(trifluoromethyl)-6,7-dihydrobenzo[a]quinolizine-3-carboxylic acid] |  | 0.15
CCC1Cc2cc(OCc3ccccc3)c(C)cc2-c2cc(=O)c(C(=O)O)cn21 (stereo not shown) [Example 115, 9-benzyloxy-6-ethyl-10-methyl-2-oxo-6,7-dihydrobenzo[a]quinolizine-3-carboxylic acid] | 0.029 | 
COCCCOc1cc2c(cc1Cl)-c1cc(=O)c(C(=O)O)cn1C(C(C)C)C2 (stereo not shown) [Example 120, 10-chloro-6-isopropyl-9-(3-methoxypropoxy)-2-oxo-6,7-dihydrobenzo[a]quinolizine-3-carboxylic acid] | 0.002 | 
COc1cc2c(cc1OCC(F)(F)F)CC(C(C)C)n1cc(C(=O)O)c(=O)cc1-2 (stereo not shown) [Example 126, 6-isopropyl-10-methoxy-2-oxo-9-(2,2,2-trifluoroethoxy)-6,7-dihydrobenzo[a]quinolizine-3-carboxylic acid] | 0.008 | 

Compound | IC50 [1] [µM] | IC50 [2] [µM]
COCCCOc1cc2c(cc1OC)-c1cc(=O)c(C(=O)O)cn1C(C(C)(C)C)C2 (stereo not shown) [Example 131, 6-tert-butyl-10-methoxy-9-(3-methoxypropoxy)-2-oxo-6,7-dihydrobenzo[a]quinolizine-3-carboxylic acid] | 0.001 | 
COCCOc1cc2c(cc1OC)-c1cc(=O)c(C(=O)O)cn1C(C1(C)CC1)C2 (stereo not shown) [Example 134, 10-methoxy-9-(2-methoxyethoxy)-6-(1-methylcyclopropyl)-2-oxo-6,7-dihydrobenzo[a]quinolizine-3-carboxylic acid] | 0.007 | 
COCCCOc1cc2c(c(Cl)c1F)-c1cc(=O)c(C(=O)O)cn1C(C(C)C)C2 (stereo not shown) [Example 137, 11-chloro-10-fluoro-6-isopropyl-9-(3-methoxypropoxy)-2-oxo-6,7-dihydrobenzo[a]quinolizine-3-carboxylic acid] | 0.015 | 
COCCCOc1cc2c(cc1F)-c1cc(=O)c(C(=O)O)cn1C(C(C)C)C2 (stereo not shown) [Example 140, 10-fluoro-6-isopropyl-9-(3-methoxypropoxy)-2-oxo-6,7-dihydrobenzo[a]quinolizine-3-carboxylic acid] |  | 0.031
COc1cc2c(cc1OCC(F)(F)CO)CC(C(C)(C)C)n1cc(C(=O)O)c(=O)cc1-2 (stereo not shown) [Example 141, 6-tert-butyl-9-(2,2-difluoro-3-hydroxy-propoxy)-10-methoxy-2-oxo-6,7-dihydrobenzo[a]quinolizine-3-carboxylic acid] |  | 0.007
COc1cc2c(cc1OCC(C)(C)CO)CC(C(C)C)n1cc(C(=O)O)c(=O)cc1-2 (stereo not shown) [Example 144, 9-(3-hydroxy-2,2-dimethyl-propoxy)-6-isopropyl-10-methoxy-2-oxo-6,7-dihydrobenzo[a]quinolizine-3-carboxylic acid] | 0.026 | 
COc1cc2c(cc1OCCCO)CC(C(C)C)n1cc(C(=O)O)c(=O)cc1-2 (stereo not shown) [Example 147, 9-(3-hydroxypropoxy)-6-isopropyl-10-methoxy-2-oxo-6,7-dihydrobenzo[a]quinolizine-3-carboxylic acid] |  | 0.03
COCCCCOc1cc2c(cc1OC)-c1cc(=O)c(C(=O)O)cn1C(C(C)C)C2 (stereo not shown) [Example 148, 6-isopropyl-10-methoxy-9-(4-methoxybutoxy)-2-oxo-6,7-dihydrobenzo[a]quinolizine-3-carboxylic acid] |  | 0.005
COc1cc2c(cc1OCC(C)(C)CO)CC(C(C)(C)C)n1cc(C(=O)O)c(=O)cc1-2 (stereo not shown) [Example 149, 6-tert-butyl-9-(3-hydroxy-2,2-dimethyl-propoxy)-10-methoxy-2-oxo-6,7-dihydrobenzo[a]quinolizine-3-carboxylic acid] | 0.002 | 
COc1cc2c(cc1OCCCCCO)CC(C(C)(C)C)n1cc(C(=O)O)c(=O)cc1-2 (stereo not shown) [Example 152, 6-tert-butyl-9-(5-hydroxypentoxy)-10-methoxy-2-oxo-6,7-dihydrobenzo[a]quinolizine-3-carboxylic acid] | 0.002 | 
COc1cc2c(cc1OCCCCCCO)CC(C(C)(C)C)n1cc(C(=O)O)c(=O)cc1-2 (stereo not shown) [Example 155, 6-tert-butyl-9-(6-hydroxyhexoxy)-10-methoxy-2-oxo-6,7-dihydrobenzo[a]quinolizine-3-carboxylic acid] | 0.002 | 
COc1cc2c(cc1OCCCCO)CC(C(C)(C)C)n1cc(C(=O)O)c(=O)cc1-2 (stereo not shown) [Example 158, 6-tert-butyl-9-(4-hydroxybutoxy)-10-methoxy-2-oxo-6,7-dihydrobenzo[a]quinolizine-3-carboxylic acid] |  | 0.003
COc1cc2c(cc1OCC#CCO)CC(C(C)(C)C)n1cc(C(=O)O)c(=O)cc1-2 (stereo not shown) [Example 159, 6-tert-butyl-9-(4-hydroxybut-2-ynoxy)-10-methoxy-2-oxo-6,7-dihydrobenzo[a]quinolizine-3-carboxylic acid] |  | 0.066
COc1cc2c(cc1OCCCCCCN)CC(C(C)(C)C)n1cc(C(=O)O)c(=O)cc1-2 (stereo not shown) [Example 160, 9-(6-aminohexoxy)-6-tert-butyl-10-methoxy-2-oxo-6,7-dihydrobenzo[a]quinolizine-3-carboxylic acid] | 0.018 | 
COc1cc2c(cc1OCCCCCCNC(=O)OC(C)(C)C)CC(C(C)(C)C)n1cc(C(=O)O)c(=O)cc1-2 (stereo not shown) [Example 161, 9-[6-(tert-butoxycarbonylamino)hexoxy]-6-tert-butyl-10-methoxy-2-oxo-6,7-dihydrobenzo[a]quinolizine-3-carboxylic acid] | 0.009 | 
COc1cc2c(cc1OCCCCCCCCN)CC(C(C)(C)C)n1cc(C(=O)O)c(=O)cc1-2 (stereo not shown) [Example 166, 9-(8-aminooctoxy)-6-tert-butyl-10-methoxy-2-oxo-6,7-dihydrobenzo[a]quinolizine-3-carboxylic acid] | 0.006 | 
COc1cc2c(cc1OCCCCCCCCNC(=O)OC(C)(C)C)CC(C(C)(C)C)n1cc(C(=O)O)c(=O)cc1-2 (stereo not shown) [Example 167, 9-[8-(tert-butoxycarbonylamino)octoxy]-6-tert-butyl-10-methoxy-2-oxo-6,7-dihydrobenzo[a]quinolizine-3-carboxylic acid] | 0.011 | 
COc1cc2c(cc1OCCCCCNC(=O)OC(C)(C)C)CC(C(C)(C)C)n1cc(C(=O)O)c(=O)cc1-2 (stereo not shown) [Example 172, 9-[5-(tert-butoxycarbonylamino)pentoxy]-6-tert-butyl-10-methoxy-2-oxo-6,7-dihydrobenzo[a]quinolizine-3-carboxylic acid] |  | 0.002
